Assay results from patent US7799831B2, “Lipophilic diesters of chelating agent for inhibition of enzyme activity” (D-Pharm Ltd., priority 2002, dated 2010).

Tests used:
MMP-9 [1] = target: T1, MMP-9 (Rattus norvegicus, UniProt P50282); assay: MMP-9 gelatinase activity by gelatin zymogram of conditioned media from C6 glioma cells (basal, TNFα- or PMA-induced); format: cell-based; conditions: for Effect on MMP-9 activity: C6 glioma cells stimulated with TNFα
Description: C6 rat glioma cells (ATCC; CRL-2199) grown on 100 mm petri dishes were detached by trypsinization and cultured to a density of 10^5 cells/well on 24-well plates in DMEM+10% FCS. The TNFα-treated cells which were stimulated to induce gelatinases were incubated, on the next day after plating, for 18 hours in DMEM without serum in the presence of either 20 ng/ml or 40 ng/ml
TNFα (R&D, cat. #410-TRNC). Different concentrations of the tested compound, as indicated, in 0.48% fatty acid free BSA, 0.4% ethanol were added to the cells that were then incubated for a total of 18-24 hours at 37° C. Cells treated with vehicle only served as control group.
Conditioned media (CM) were then collected, centrifuged at 2000 rpm for 5 min., and supernatants were transferred to new tubes. MMP gelatinase activity was determined by using zymogram gels (Invitrogen, cat. #EC6175) which include gelatin as a substrate. Samples were loaded on gels in 62.5 mM Tris-HCl pH 6.8, 10% glycerol, 2% SDS and traces of bromophenol-blue. Gels were run in Tris/glycine-SDS running buffer, washed for 30 min. with renaturing buffer (Invitrogen) and for further 30 min. with developing buffer (Invitrogen). MMP activity was developed overnight at 37° C. with fresh developing buffer. The gels were then stained for one hour with Coomasie Blue (Brilliant Blue R, Sigma, cat. #B-8647) in 40% methanol and 7% acetic acid, and destained with 30% methanol/10% acetic acid. […] Band analysis was determined using the Kodak digital Science™ 1D Image Analysis Software. Treatments were performed in triplicates and were subjected to three separate zymogram gels.
C6 glioma cells were grown and treated as described above in Example 3, except that cells were stimulated with either 20 ng/ml TNFα (R&D, cat. #410-TRNC) or 0.1 μM Phorbol 12-myristate 13-acetate (PMA, Sigma, cat. #P-8139). […]
Assays were performed in triplicates and zymogram analysis was carried out as described above in Example 3. IC50 values for each of the tested DP-BAPTA compounds were calculated.
Target sequence in this assay (P50282 108-708): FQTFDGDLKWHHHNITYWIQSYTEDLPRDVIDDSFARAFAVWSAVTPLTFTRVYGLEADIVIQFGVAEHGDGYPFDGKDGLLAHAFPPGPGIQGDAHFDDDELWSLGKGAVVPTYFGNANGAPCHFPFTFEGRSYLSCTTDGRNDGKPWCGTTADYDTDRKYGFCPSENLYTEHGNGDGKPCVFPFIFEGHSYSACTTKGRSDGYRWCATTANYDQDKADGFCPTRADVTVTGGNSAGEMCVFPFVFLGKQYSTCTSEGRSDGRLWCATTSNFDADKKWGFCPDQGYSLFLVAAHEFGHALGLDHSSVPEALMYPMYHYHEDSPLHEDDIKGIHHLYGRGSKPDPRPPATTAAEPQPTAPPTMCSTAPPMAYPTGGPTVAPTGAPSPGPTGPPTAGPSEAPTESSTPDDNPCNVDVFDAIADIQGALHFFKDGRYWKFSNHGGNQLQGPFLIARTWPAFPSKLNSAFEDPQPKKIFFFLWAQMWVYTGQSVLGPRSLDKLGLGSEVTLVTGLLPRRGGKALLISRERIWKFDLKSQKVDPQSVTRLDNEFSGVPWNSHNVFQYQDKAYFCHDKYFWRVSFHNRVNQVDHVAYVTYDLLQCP

calpain = assay: Calpain-cleaved spectrin in brain hemispheres after transient MCA occlusion; format: in vivo, rat; conditions: SD rats, 2 h MCAO, 5 μg/kg i.p. at start of reperfusion
Description: Transient middle cerebral artery (MCA) occlusion was performed in male Sprague Dawley (SD) rats by applying 4-0 silicone-coated nylon monofilament through external carotid artery. The animals were anesthetized with 4% halothane and maintained at 1.5% halothane in a 1:2 mixture of nitrous oxide and oxygen without tracheotomy and allowed to breathe spontaneously. Via a ventral cutaneous the common, right external and internal carotid arteries (ECA) were exposed. A suture was introduced into a ligated right external carotid artery, in a retrograde fashion towards the carotid bifurcation. It was then directed distally up to the right internal carotid artery to a distance of 20 mm from the carotid bifurcation to […] occlude the origin of the MCA. It was secured with silk ligatures. Two hours after occlusion the monofilament was withdrawn to allow reperfusion and the cutaneous wound was sutured and cleaned. The whole procedure took about 25 min., with rectal temperature maintained throughout at 37° C. […]
Assay for Calpain activity: Each hemisphere was separately lysed by homogenization on ice in 5 ml RIPA buffer (50 mM Tris pH 7.5; 150 mM NaCl; 0.5% DOC; 1% Triton X-100; 0.1% SDS; 1 mM Nappi; 2 mM EDTA) plus protease inhibitors (Bohringer, Manheim, Germany). […] Quantitation of the bands was performed using the Kodak 1D software. […]

MMP-2 = target: T2, MMP-2 (Rattus norvegicus, UniProt P33436); assay: MMP-2 activity in brain hemisphere lysates after unilateral MCAO (zymogram); format: in vivo; conditions: SD rats, 2 h MCAO, 5 μg/kg i.p. single dose, sacrificed after 24 hrs
T2 construct: each hemisphere of their brains was subjected separately to lysis and extracted for enzymatic activity; from tissue; host or cells: rat brain hemispheres (Sprague-Dawley, MCAO)
T2 sequence (P33436 110-662): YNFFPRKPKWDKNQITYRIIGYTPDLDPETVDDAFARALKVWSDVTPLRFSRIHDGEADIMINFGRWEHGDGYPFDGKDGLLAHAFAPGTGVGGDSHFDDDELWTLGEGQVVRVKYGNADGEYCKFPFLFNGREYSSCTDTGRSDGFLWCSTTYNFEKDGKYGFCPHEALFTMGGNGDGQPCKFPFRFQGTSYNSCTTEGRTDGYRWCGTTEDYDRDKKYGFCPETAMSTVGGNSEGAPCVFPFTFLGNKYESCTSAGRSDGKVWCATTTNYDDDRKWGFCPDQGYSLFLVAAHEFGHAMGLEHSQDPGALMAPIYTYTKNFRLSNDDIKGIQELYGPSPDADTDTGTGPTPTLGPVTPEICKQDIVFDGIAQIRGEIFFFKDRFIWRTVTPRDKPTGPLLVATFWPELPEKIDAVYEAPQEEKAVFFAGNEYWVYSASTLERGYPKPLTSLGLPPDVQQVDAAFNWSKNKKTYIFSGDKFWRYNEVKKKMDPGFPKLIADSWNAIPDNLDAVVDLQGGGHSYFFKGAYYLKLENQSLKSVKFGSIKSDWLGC

MMP-9 [2] = target: T1, MMP-9; assay: MMP-9 zymogram of conditioned media from primary cortical glial cells (basal and TNFα-induced); format: cell-based; design: endogenous in cells; host or cells: primary cortical glial cells from rat embryos; conditions: 25 μM compound
Description: Cortical glial cells from rat embryos (day 18 of pregnancy) were seeded on poly-D-lysine coated 24-well plates with MEM medium containing 5% FCS, 5% HS, 2 mM 1-glutamine and 0.6% glucose, at a density of 5×10^4 cells/well. After 4 days in culture, the medium was changed to MEM+10% FCS. When glial cells reached confluence (around 17 days after plating), they were exposed for 24 hours to 10 ng/ml or 20 ng/ml human TNFα in order to induce MMP-9. The induction was performed either in the absence or presence of 25 μM DP-b99 (dilution 1:200 with medium from a stock of 5 mM in sodium citrate buffer) in a serum-free medium containing 5 mg/ml BSA (essentially fatty acid free). Conditioned media (CM) were collected and 12 μl of each of the triplicates was subjected to separate zymogram gels, as described above in Example 3.
A quantitative analysis of the MMP-9 bands, representing the pro- and active forms of the enzyme, was performed on the triplicate zymograms. The results were normalized to percentage of control values (=100%) and are depicted in FIGS. 3B and 3C that represent, respectively, the biologically active- and pro-MMP-9 forms of the enzyme.

MMP-9 [3] = target: T1, MMP-9; assay: MMP-9 activity in brain hemisphere lysates after unilateral MCAO (zymogram); format: in vivo; design: each hemisphere of their brains was subjected separately to lysis and extracted for enzymatic activity; from tissue; host or cells: rat brain hemispheres (Sprague-Dawley, MCAO); conditions: SD rats, 2 h MCAO, 5 μg/kg i.p. single dose, sacrificed after 24 hrs
Description: Six Sprague-Dawley (SD) rats were subjected to unilateral (right hemisphere) Middle Cerebral Artery Occlusion (MCAO) for 2 hours. 5 μg/kg DP-b99 in 0.02% sodium citrate in saline was i.p. administered to three animals in a single dose, followed by 2 hrs. reperfusion. The other three animals were treated with vehicle instead of DP-b99. A rat that was only operated with no further treatment was used as a sham control.
The seven rats were sacrificed after 24 hrs. and each hemisphere of their brains was subjected separately to lysis and extracted for enzymatic activity. Brains were minced and solubilized in lysis buffer (25 mM Tris-HCl pH 7.5, 1% IGEPAL CA-630—a non-ionic detergent from Sigma, 100 mM NaCl, 0.5 U/ml aprotinin, 0.01% sodium azide) at a final concentration of 400 mg/ml. The preparations were incubated for 24 hrs. at 4° C. before lysates were centrifuged at 14,000 rpm for 15 min. and supernatants were collected.
Protein concentration was determined by the Bradford assay and 40 μg protein from each lysate were loaded on gelatin zymogram gels for determination of MMP-9 levels. Gels were developed for 48 hrs. Quantitative analysis of the gels was performed using the Kodak Digital System and Kodak 1D software as described in Example 3.
Target sequence in this assay (P50282 108-708): as the sequence (P50282 108-708) above

MMP-9 [4] = target: T3, MMP-9 (Homo sapiens, UniProt P14780); assay: MMP-9 activity assay (BioTrak) in conditioned media of TNFα-treated A-172 glioma cells; format: cell-based; conditions: A-172 cells, 10 ng/ml TNFα, 20 or 50 μM compound
T3 construct: endogenous in cells; host or cells: A-172 human glioma cells (ATCC CRL-1620)
T3 sequence (P14780 107-707 limits assumed): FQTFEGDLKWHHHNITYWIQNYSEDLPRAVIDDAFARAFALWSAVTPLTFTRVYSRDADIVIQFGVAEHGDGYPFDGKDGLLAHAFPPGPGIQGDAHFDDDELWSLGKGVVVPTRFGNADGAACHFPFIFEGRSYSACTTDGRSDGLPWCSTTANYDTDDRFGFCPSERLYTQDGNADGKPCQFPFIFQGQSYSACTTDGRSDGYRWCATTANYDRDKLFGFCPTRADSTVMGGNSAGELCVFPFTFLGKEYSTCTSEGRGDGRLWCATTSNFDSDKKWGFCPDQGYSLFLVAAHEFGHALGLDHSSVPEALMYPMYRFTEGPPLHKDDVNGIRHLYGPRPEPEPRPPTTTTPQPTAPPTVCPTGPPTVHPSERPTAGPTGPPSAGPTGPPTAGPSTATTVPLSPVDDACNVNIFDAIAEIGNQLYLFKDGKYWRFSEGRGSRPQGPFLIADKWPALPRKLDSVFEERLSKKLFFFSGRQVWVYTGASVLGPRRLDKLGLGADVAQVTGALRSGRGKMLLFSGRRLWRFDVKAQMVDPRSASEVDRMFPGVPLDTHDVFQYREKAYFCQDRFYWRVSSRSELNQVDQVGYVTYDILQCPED
Description: (§1) A-172 human glioma cells (ATCC; CRL-1620) were grown and treated with 10 ng/ml TNFα in the presence of 0, 20 or 50 μM DP-b109 following the procedure as described above in Example 3. Cells treated with vehicle without the TNFα treatment, served as control groups.
(§2) CM from each treatment group was collected and subjected to zymogram gels (see procedure in Example 3), to MMP-9 immunoassay and to MMP-9 activity assay.
MMP-9 activity was assayed using the MMP-9 activity assay system (BioTrak™, Amersham, U.K., Cat. # RPN 2634), which quantifies the amount of the active MMP-9 form (see BioTrak kit instructions).

MMP-9 [5] = assay: Total MMP-9 protein immunoassay (Quantikine) in conditioned media of TNFα-treated A-172 glioma cells; format: cell-based, human; conditions: A-172 cells, 10 ng/ml TNFα, 20 or 50 μM compound
Description: as §1, §2
The total amount of MMP-9 protein was determined by immunoassay using the Quantikine™ (R&D Systems, U.S.A., Cat # DMP900) kit and following the manufacturer's instructions.

With `O=C(O)CN(CC(=O)O)c1ccccc1OCCOc1ccccc1N(CC(=O)O)CC(=O)O` [BAPTA, 1,2-bis(2 aminophenoxy)ethane-N,N,N′,N′-tetraacetic acid] the “Effect on MMP-9 activity” value (MMP-9 [1]) was “did not affect the MMP-9 activity”.
In the case of `CC(=O)OCOC(=O)CN(CC(=O)OCOC(C)=O)c1ccccc1OCCOc1ccccc1N(CC(=O)OCOC(C)=O)CC(=O)OCOC(C)=O` [BAPTA-AM, 1,2-bis(2-aminophenoxy)ethane-N,N,N′,N′-tetra-acetic acid acetoxymethyl ester], the “Effect on MMP-9 activity” value (MMP-9 [1]) is reported as “increased rather than decreased the MMP-9 activity” and the “Effect on TNFα-induced MMP-9 activity” value (MMP-9 [1]; C6 glioma cells, 20 ng/ml TNFα, compounds at 1, 5, 10 and 20 μM, zymogram) is reported as “Increased”.
`CCCCCCCCOCCOC(=O)CN(CC(=O)O)c1ccccc1OCCOc1ccccc1N(CC(=O)O)CC(=O)OCCOCCCCCCCC` [DP-b99, 1,2-bis(2-aminophenoxy)ethane, N,N′-di(2-octoxyethyl acetate), N,N′-diacetic acid] was tested, and the “Increase in cleaved spectrin over the sham-operated values” (calpain) was “about 50%”, the “Cleaved spectrin (R/L hemisphere)” value (calpain; sacrificed four hours later, n=2) was 1.42 ± 0.08 and the MMP-2 activity level (MMP-2) was “unaffected”. The “Active MMP-9 form, TNFα treated cells” value (MMP-9 [2]; 10 or 20 ng/ml TNFα) was “reduced”, the “Pro-MMP-9 form, TNFα treated cells” value (MMP-9 [2]; 10 or 20 ng/ml TNFα) was “reduced” and the “Active MMP-9 band, un-stimulated cells” value (MMP-9 [2]; no TNFα) was “abolished”. The “Pro-MMP-9 band intensity, un-stimulated cells” value (MMP-9 [2]; no TNFα) was “increased the band intensity” and the “MMP-9 activity R/L ratio (injured/intact hemisphere)” value (MMP-9 [3]) was 3.0.
For `CCCCCCCCCCCCCCCCCCOCCOC(=O)CN(CC(=O)O)c1ccccc1OCCOc1ccccc1N(CC(=O)O)CC(=O)OCCOCCCCCCCCCCCCCCCCCC` [DP-b109, 1,2-bis(2-aminophenoxy)ethane, N,N′-di(2-octodecyloxyethyl acetate), N,N′-diacetic acid], the “TNFα-induced increase in active MMP-9” value (MMP-9 [4]) was “reduced to the baseline level” and the “Level of total MMP-9 protein in conditioned media” value (MMP-9 [5]) was “reduces, in a dose-dependent fashion”.
